Non-standard residues stand in square brackets, D forms with d. Residues, ends and D or L forms follow the SMILES beside them. *: point of attachment. X6 = c1ccc(C[C@H](N*)c2nc3cccc(-c4ccccc4)c3[nH]2)cc1; X7 = CC[C@H](C)[C@H](N*)c1nc2cccc(-c3ccccc3)c2[nH]1; X3 = CC(C)C[C@H](N*)c1nc2cccc(-c3ccccc3)c2[nH]1; X5 = c1ccc(-c2cccc3nc([C@@H]4CCCN4*)[nH]c23)cc1; X4 = CC(C)[C@H](N*)c1nc2cccc(-c3ccccc3)c2[nH]1; X1 = C[C@H](N*)c1nc2cccc(-c3ccccc3)c2[nH]1; Ala(cPent) = N[C@@H](CC1CCCC1)C(=O)O; Pentanoyl(4-Me) = CC(C)CCC(=O)*; Dap(Me) = CNC[C@H](N)C(=O)O; Dap = NC[C@H](N)C(=O)O; Bz = O=C(c1ccccc1)*
Experiments:
Protein AF-9 = target: T1, Protein AF-9 (Homo sapiens, UniProt P42568); test: Binding affinity to MBP-tagged human recombinant AF9 (487 to 568 residues) incubated for 40 mins by measuring fluorescence polarization by microplate reader method
T1 sequence (P42568 whole entry): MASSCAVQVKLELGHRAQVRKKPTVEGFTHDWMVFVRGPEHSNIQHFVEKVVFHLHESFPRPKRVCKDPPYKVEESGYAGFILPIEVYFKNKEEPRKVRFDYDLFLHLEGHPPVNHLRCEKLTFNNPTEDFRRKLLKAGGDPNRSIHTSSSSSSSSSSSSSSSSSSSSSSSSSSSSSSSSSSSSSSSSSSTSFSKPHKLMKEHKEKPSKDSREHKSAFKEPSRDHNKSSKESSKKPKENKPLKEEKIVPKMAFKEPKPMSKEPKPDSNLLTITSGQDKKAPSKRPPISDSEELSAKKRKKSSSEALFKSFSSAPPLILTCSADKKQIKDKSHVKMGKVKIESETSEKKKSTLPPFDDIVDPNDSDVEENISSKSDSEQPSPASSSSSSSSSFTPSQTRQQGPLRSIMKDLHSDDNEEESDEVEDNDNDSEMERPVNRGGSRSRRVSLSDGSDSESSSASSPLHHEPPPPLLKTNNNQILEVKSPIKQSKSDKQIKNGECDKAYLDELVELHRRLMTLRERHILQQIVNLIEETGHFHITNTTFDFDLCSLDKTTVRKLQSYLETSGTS

MOLM-13 [1] = test: cells; details: Homo sapiens, MOLM-13, 192 h
Description: Anticancer activity against human MOLM-13 cells harbouring MLL-AF9 assessed as inhibition of cell growth treated for 8 days measured by CCK-8 kit method

KOPN-8 = test: cells; details: Homo sapiens, KOPN-8, 192 h
Description: Anticancer activity against human KOPN-8 cells harbouring MLL-ENL assessed as inhibition of cell growth treated for 8 days measured by CCK-8 kit method

RS4-11 = test: Anticancer activity against human RS4-11 cells assessed as inhibition of cell growth treated for 8 days measured by CCK-8 kit method; assay type: functional, cell-based; details: RS4-11, 192 h
MV4-11 = test: Anticancer activity against human MV4-11 cells assessed as inhibition of cell growth treated for 8 days measured by CCK-8 kit method; assay type: functional, cell-based; details: MV4-11, 192 h
K562 = test: Anticancer activity against human K562 cells assessed as inhibition of cell growth treated for 8 days measured by CCK-8 kit method; assay type: functional, cell-based; details: K562, 192 h
[2] = Apparent permeability across apical to basolateral side in human Caco-2 cells; assay type: ADME, cell-based
[3] = Stability in human plasma assessed as compound remaining measured upto 1440 mins by HPLC analysis; assay type: ADME, cell-free; details: read-out: Stability
MOLM-13 [4] = test: cells; details: Homo sapiens, MOLM-13, 96 h
Description: Anticancer activity against human MOLM-13 cells harbouring MLL-AF9 assessed as inhibition of cell growth treated for 4 days measured by CCK-8 kit method

MOLM-13 [5] = test: cells; details: Homo sapiens, MOLM-13, 120 h
Description: Anticancer activity against human MOLM-13 cells harbouring MLL-AF9 assessed as inhibition of cell growth treated for 5 days measured by CCK-8 kit method

MOLM-13 [6] = test: cells; details: Homo sapiens, MOLM-13, 144 h
Description: Anticancer activity against human MOLM-13 cells harbouring MLL-AF9 assessed as inhibition of cell growth treated for 6 days measured by CCK-8 kit method

MOLM-13 [7] = test: cells; details: Homo sapiens, MOLM-13, 168 h
Description: Anticancer activity against human MOLM-13 cells harbouring MLL-AF9 assessed as inhibition of cell growth treated for 7 days measured by CCK-8 kit method

MOLM-13 [8] = test: cells; details: Homo sapiens, MOLM-13, 216 h
Description: Anticancer activity against human MOLM-13 cells harbouring MLL-AF9 assessed as inhibition of cell growth treated for 9 days measured by CCK-8 kit method

Compound | Ki (Protein AF-9) | IC50 (MOLM-13 [1]) | IC50 (KOPN-8) | also measured
CC[C@@H](C)[C@H](NC(=O)[C@@H]1CCCN1C(=O)[C@H](CC(C)C)NC(C)=O)C(=O)N[C@@H](CO)C(=O)N[C@H](C(=O)N1CCC[C@H]1C(=O)N[C@@H](CC(C)C)C(=O)N(C)C)[C@@H](C)CC | 160 nM | – | – | –
CC(=O)N[C@@H](CC(C)C)C(=O)N1CCC[C@H]1C(=O)N[C@H](C(=O)N[C@@H](CN)C(=O)N[C@@H](CC1CCCC1)C(=O)N[C@@H](C)c1nc2cccc(-c3ccccc3)c2[nH]1)C(C)C (Ac-LPV[Dap][Ala(cPent)]-X1) | 17 nM | 460 nM | 440 nM | –
CC(=O)N[C@@H](CC(C)C)C(=O)N1CCC[C@H]1C(=O)N[C@H](C(=O)N[C@@H](CN)C(=O)N[C@@H](CC1CCCC1)C(=O)N[C@@H](CC(C)C)c1nc2cccc(-c3ccccc3)c2[nH]1)C(C)C (Ac-LPV[Dap][Ala(cPent)]-X3) | 19 nM | 490 nM | 430 nM | –
CC(=O)N[C@@H](CC(C)C)C(=O)N1CCC[C@H]1C(=O)N[C@H](C(=O)N[C@@H](CN)C(=O)N[C@@H](CC1CCCC1)C(=O)N[C@H](c1nc2cccc(-c3ccccc3)c2[nH]1)C(C)C)C(C)C (Ac-LPV[Dap][Ala(cPent)]-X4) | 29 nM | 640 nM | 750 nM | –
CC(=O)N[C@@H](CC(C)C)C(=O)N1CCC[C@H]1C(=O)N[C@H](C(=O)N[C@@H](CN)C(=O)N[C@@H](CC1CCCC1)C(=O)N1CCC[C@H]1c1nc2cccc(-c3ccccc3)c2[nH]1)C(C)C (Ac-LPV[Dap][Ala(cPent)]-X5) | 22 nM | 500 nM | 680 nM | –
CC(=O)N[C@@H](CC(C)C)C(=O)N1CCC[C@H]1C(=O)N[C@H](C(=O)N[C@@H](CN)C(=O)N[C@@H](CC1CCCC1)C(=O)N[C@@H](Cc1ccccc1)c1nc2cccc(-c3ccccc3)c2[nH]1)C(C)C (Ac-LPV[Dap][Ala(cPent)]-X6) | 13 nM | 440 nM | 410 nM | –
CC[C@H](C)[C@H](NC(=O)[C@H](CC1CCCC1)NC(=O)[C@H](CN)NC(=O)[C@@H](NC(=O)[C@@H]1CCCN1C(=O)[C@H](CC(C)C)NC(C)=O)C(C)C)c1nc2cccc(-c3ccccc3)c2[nH]1 (Ac-LPV[Dap][Ala(cPent)]-X7) | 23 nM | 610 nM | 480 nM | –
CNC[C@H](NC(=O)[C@@H](NC(=O)[C@@H]1CCCN1C(=O)c1ccccc1)C(C)C)C(=O)N[C@@H](CC1CCCC1)C(=O)N[C@@H](C)c1nc2cccc(-c3ccccc3)c2[nH]1 (Bz-PV[Dap(Me)][Ala(cPent)]-X1) | 32 nM | 740 nM | 670 nM | –
CC(C)[C@H](NC(=O)[C@@H]1CCCN1C(=O)c1ccccc1)C(=O)N[C@@H](CN)C(=O)N[C@@H](CC1CCCC1)C(=O)N[C@@H](C)c1nc2cccc(-c3ccccc3)c2[nH]1 (Bz-PV[Dap][Ala(cPent)]-X1) | 15 nM | 310 nM | 330 nM | –
CC[C@H](C)[C@H](NC(=O)[C@H](CO)NC(=O)[C@@H](NC(=O)[C@@H]1CCCN1C(=O)[C@H](CC(C)C)NC(C)=O)C(C)C)C(=O)N1CCC[C@H]1C(=O)N[C@@H](CC(C)C)C(=O)N(C)C (HELM PEPTIDE1{[ac].L.P.V.S.I.P.L.[CN(C)[*:1]]}$$$$V2.0) | 160 nM | – | – | –
CC(C)CCC(=O)N1CCC[C@H]1C(=O)N[C@H](C(=O)N[C@@H](CN)C(=O)N[C@@H](CC1CCCC1)C(=O)N[C@@H](C)c1nc2cccc(-c3ccccc3)c2[nH]1)C(C)C ({Pentanoyl(4-Me)}-PV[Dap][Ala(cPent)]-X1) | 9 nM | 150 nM | 190 nM | IC50 (RS4-11): 380 nM; IC50 (MV4-11): 140 nM; IC50 (K562): 33000 nM; Papp A→B [2]: 1.82 ×10⁻⁶ cm/s; remaining at 24 h [3]: 83%; IC50 (MOLM-13 [4]): 1290 nM; IC50 (MOLM-13 [5]): 932 nM; IC50 (MOLM-13 [6]): 589 nM; IC50 (MOLM-13 [7]): 257 nM; IC50 (MOLM-13 [8]): 94 nM
CC(C)(C)NCC(O)COc1cccc2c1CC(O)C(O)C2 (stereo not drawn) [NADOLOL] | – | – | – | Papp A→B [2]: 0.13 ×10⁻⁶ cm/s; remaining at 24 h [3]: 97.1%
CC(C)NCC(O)COc1cccc2ccccc12 (stereo not drawn) [PROPRANOLOL] | – | – | – | Papp A→B [2]: 18.5 ×10⁻⁶ cm/s; remaining at 24 h [3]: 72.9%
